Results on two compounds are retold here after US4882420A, “Dihalo-statine substituted renin inhibitors” (The Upjohn Company, priority 1986, dated 1989).

This assay has as its target T1, renin (plasma renin activity of human plasma) (Homo sapiens, UniProt P00797).
T1 construct: Lyophilized human plasma with 0.1% EDTA is obtained from New England Nuclear; tissue New England Nuclear Plasma Renin Activity Control; host or cells: human plasma (lyophilized, reconstituted)
T1 sequence (P00797 67-406): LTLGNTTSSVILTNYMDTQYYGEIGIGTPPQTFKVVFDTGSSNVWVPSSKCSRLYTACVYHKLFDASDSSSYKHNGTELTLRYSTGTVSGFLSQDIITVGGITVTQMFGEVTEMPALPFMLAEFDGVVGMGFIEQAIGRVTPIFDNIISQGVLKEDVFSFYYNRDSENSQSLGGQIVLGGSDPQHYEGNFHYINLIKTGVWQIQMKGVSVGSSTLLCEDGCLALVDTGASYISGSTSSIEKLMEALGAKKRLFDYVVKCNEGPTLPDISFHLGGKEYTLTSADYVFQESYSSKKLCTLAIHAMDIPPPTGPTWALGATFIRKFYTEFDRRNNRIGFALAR
As to the kind of experiment: GAMMACOAT plasma renin activity (PRA) radioimmunoassay, inhibition of angiotensin I generation in reconstituted human plasma. It is filed as biochemical. The note with it: for potency estimated from few doses: reconstituted lyophilized human plasma, 90 minutes at 37° C., estimated by plotting two inhibitor concentrations, read-out: IC50 (I50, concentration producing 50% inhibition of plasma renin activity). How it is done:
Lyophilized human plasma with 0.1% EDTA is obtained from New England Nuclear, North Billerica, Mass. 01862 as "Plasma Renin Activity Control". This lyophilized plasma is reconstituted, on the day of the assay, with cold sterile distilled water according to directions on the vial. The plasma renin activity (PRA) of the reconstituted plasma is assayed with "GAMMACOAT [^125 I] Plasma Renin Activity Radioimmunoassay Kit" supplied by Clinical Assays, a Division of Travenol Laboratories, Inc., Cambridge, Mass. 02139. The procedure used with these kits is carried out essentially as described in the literature which accompanies them. The initial (enzymatic generation of Angiotensin 1) step is modified slightly to accommodate the testing of renin inhibitors and to minimize the amount of plasma required to perform the assay. Thus, for every milliliter of reconstituted plasma used in the assay, there is added and vortexed 10 μl of PMSF (0.3M phenylmethylsulfonyl fluoride in ethanol) and 100 μl of maleate generation buffer, both provided in the kit. 250 μl of this mixture is then transferred to each tube used in the generation step along with 10 μl of the potential renin inhibitor suspended or dissolved in 1% Tween 80 in water. […]
In the case of renin inhibitory peptide (RIP), 100 μl of the 4° C. blank is added to a GAMMACOAT tube. […] The tubes are then counted in a gamma counter. The results of the RIP are evaluated with the Rodbard Radioimmunoassay Program and the plasma renin activity (PRA) is expressed as […]. […] In addition to I50 values, relative potencies are also calculated. A relative potency is determined by comparing the I50 of RIP to the I50 of the compound. However, it must be emphasized that relative potencies are calculated from the I50 obtained for RIP on the day the compound is assayed and not from the average I50 for RIP.
It has been determined that the GAMMACOAT-PRA assay is a suitable replacement for the RENAK assay (supplied by Hoffman-LaRoche and previously known as a diagnostic test for high renin states) to determine the activity of potential renin inhibitors.

Turning to `CC[C@H](C)[C@H](NC(=O)C(F)(F)C(=O)C(CC(C)C)NC(=O)[C@H](Cc1c[nH]cn1)NC(=O)[C@H](Cc1ccccc1)NC(=O)OC(C)(C)C)C(=O)NCc1ccccn1` (stereo partly drawn) [N-tert-butyloxycarbonyl-L-phenylalanyl-L-histidyl-4-amino-2,2-difluoro-4-(2-methylpropyl)-1,3-dioxobutyl-L-isoleucyl-2-pyridylmethylamide], the potency estimated from few doses was 1.4 nM.
Regarding `CC[C@H](C)[C@H](NC(=O)C(F)(F)[C@H](O)[C@H](CC(C)C)NC(=O)[C@H](Cc1c[nH]cn1)NC(=O)[C@H](Cc1ccccc1)NC(=O)OC(C)(C)C)C(=O)NCc1ccccn1` [N-tert-butyloxycarbonyl-L-phenylalanyl-L-histidyl-4S-amino-2,2-difluoro-3R-hydroxy-4-(2-methylpropyl)-1-oxobutyl-L-isoleucyl-2-pyridylmethylamide], the potency estimated from few doses is 12 nM. The “relative potency (I50 of RIP compared to I50 of the compound)” value (relative to RIP (H-Pro-His-Pro-Phe-His-Phe-Phe-Val-Tyr-Lys-OH) assayed on the same day) is given as 1,000.
